The source of these data is patent US20130122085A1, “PHARMACEUTICAL COMPOSITIONS OF SELECTIVE ANDROGEN RECEPTOR MODULATORS AND METHODS OF USE THEREOF” (priority 2011, published 2013).

Data set [1] is described as follows: Exposure of S-I in female rats. It is filed as in vivo, rat. The method, then: The exposure of S-I in female rats was AUCinf of 147,000 ng*hr/ml following a single 10 mg per kg IV dose. With the reasonable assumption that the SC Alzet pump dose was completely absorbed, a 0.13 mg per kg dose should result in an exposure of −1911 ng*hr/mL in rats. […] In other words, the 0.13 mg per kg per day Alzet dose in rats is equivalent to a 10 mg per day continuous release dose in humans, such as might be accomplished by a mechanical or osmotic pump, or transdermal patch, or the like.

Data set [2] in a line: Steady-state exposure in healthy young men (G100402, MAD). Particulars: male, human, in vivo, 10 mg daily doses.
The subject of data set [3] is patients with cancer. The data set is described as follows: Phase II double-blind, placebo-controlled study in cancer patients with weight loss. It is filed as in vivo, human. The settings on record: 3 mg dose, 4 months. The method, then: A Phase II double-blind, placebo-controlled study was performed with patients with cancer that had experienced at least a 2% total body weight loss in the 6 months prior to the study. The subjects received S-I or matching placebo for 4 months. In this study, no exercise program was mandated and no diet control or monitoring was conducted. The primary endpoint of this study was total lean body mass. The key secondary endpoint of this study was physical function (stair climb speed and power).

For data set [4], the system named is ovariectomized female rats. As to the kind of experiment: Delivery system study: lean body mass and serum HDL in OVX rats. It is filed as in vivo, rat. The settings on record: 14 days, 0.13 mg/kg/day constant rate subcutaneous infusion (Alzet pump) vs daily subcutaneous injection. The method, then: Female rats were ovariectomized and randomized by body weight into groups of 10. Treatment groups included: (1) 3 mg/kg/day DHT administered daily via subcutaneous injection, (2) 0.13 mg/kg/day S-I administered daily via subcutaneous injection, and (3) 0.13 mg/kg/day S-I administered at a constant rate via subcutaneous infusion by an Alzet pump. Baseline measurements of fasting serum HDL as determined by enzymatic assay were performed via retroorbital blood draw for all animals. Baseline lean body mass (LBM) as determined by magnetic resonance was determined for all animals. After 14 days of treatment, changes from baseline in lean body mass (Δ LBM) and fasting serum HDL (Δ HDL) were determined and represented as a percentage of DHT treated animals.

`C[C@](O)(COc1ccc(C#N)cc1)C(=O)Nc1ccc(C#N)c(C(F)(F)F)c1` [Compound S-I, (S)—N-(4-cyano-3-(trifluoromethyl)phenyl)-3-(4-cyanophenoxy)-2-hydroxy-2-methylpropanamide]: the area under the curve AUC(0-inf) in data set [1] (rat, in vivo, 10 mg/kg, female rats, single 10 mg per kg IV dose) amounted to 147000 ng·h/mL. Further, the “exposure expected at 0.13 mg per kg dose” value in data set [1] (rats, SC Alzet pump dose assumed completely absorbed, extrapolated from 10 mg per kg IV) was -1911 ng·h/mL. Besides, in data set [2], the AUC(0-t) turned out to be 1750 ng·h/mL. The “power subjects were able to exert climbing 12 steps” value in data set [3] (p=0.001 compared to baseline, p=0.058 compared to placebo) is reported as “statistically significant increase”. Besides, in data set [3] (p=0.007 compared to baseline, p=0.028 compared to placebo), the “time it took the subjects to climb 12 steps” value is “statistically significant decrease”. For the same compound, the “total lean body mass” value in data set [3] (p=0.015 compared to placebo, p=0.020 compared to baseline) was “statistically significant increase”. In data set [4], the “change from baseline in fasting serum HDL (Δ HDL)” value is “smaller decrease in serum HDL” and the “change from baseline in lean body mass (Δ LBM)” value was “larger increase in LBM than daily subcutaneous injections”.

What is called AUC(0-inf) is total exposure, with the tail of the curve extrapolated. Lower therefore signals low exposure. A word on the AUC(0-t): it is the area under the concentration-time curve up to a stated or last time point. A high value points to more exposure.
